Laboratory results: US20240132431A1, “METHOD FOR ALKYLATING ACIDIC FUNCTIONAL GROUP” (Chugai Seiyaku Kabushiki Kaisha, priority 2021, published 2024)

Biological target: T1, Bcl-2 protein (Recombinant Human Bcl-2 Protein) (Homo sapiens, UniProt P10415)
T1 construct: purchased Novus NBP2-34889
Assay: Binding evaluation of mixture library compounds to Bcl-2 using AS-MS (affinity selection mass spectrometry)
Conditions: for ASMS ratio (%) n = 1 / ASMS ratio (%) n = 2: ASMS Ratio(%)=(A−C)/B×100; for ASMS ratio (%) n = 1: replicate n = 1; for ASMS ratio (%) n = 2: replicate n = 2
Procedure, shortened: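 Bcl-2 binding is scored from LC/MS signal retained with protein through gel-filtration spin columns, normalised to unfiltered and protein-free controls. Incubation: 20 μM protein, […] per compound, 1 h, 23° C.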

[1] = AS-MS on the mixture of 1200 library compounds
[2] = AS-MS, mixture of 1200 compounds, Bcl-2

T1 sequence (P10415 whole entry): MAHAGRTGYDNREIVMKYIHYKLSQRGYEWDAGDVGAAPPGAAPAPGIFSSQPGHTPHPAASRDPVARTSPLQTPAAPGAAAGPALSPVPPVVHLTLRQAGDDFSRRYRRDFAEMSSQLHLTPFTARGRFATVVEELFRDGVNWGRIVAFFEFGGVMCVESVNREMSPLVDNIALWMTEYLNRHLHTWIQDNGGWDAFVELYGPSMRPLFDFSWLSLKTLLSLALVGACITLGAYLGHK

Row | ASMS ratio (%) n = 2 [1] [%] | ASMS ratio (%) n = 1 (AS-MS, mixture library, Bcl-2) [%] | ASMS ratio (%) n = 2 (AS-MS, mixture library, Bcl-2) [%] | ASMS ratio (%) (n = 1) | ASMS ratio (%) (n = 2) | Compound | ASMS ratio (%) n = 1 [1] [%] | other results
1 | 3.0 |  |  |  |  | CCOc1cccc(-c2cc(C(=O)N3CCN(c4ccc(C(=O)N(C)CC56CC7CC(CC(C7)C5)C6)nn4)CC3)cc(C(C)(C)C)c2)c1 [B3A015-01, N-(1-Adamantylmethyl)-6-[4-[3-tert-butyl-5-(3-ethoxyphenyl)benzoyl]piperazin-1-yl]-N-methylpyridazine-3-carboxamide] | 8.9 | 
2 |  | −5.2 | 3.6 |  |  | CCOc1cncc(-c2cc(CN3CCN(c4ccc(C(=O)NS(=O)(=O)CC56CC7CC(CC(C7)C5)C6)cc4)CC3)cc(C(F)(F)F)c2)c1 [B2A062-01, N-(1-Adamantylmethylsulfonyl)-4-[4-[[3-(5-ethoxypyridin-3-yl)-5-(trifluoromethyl)phenyl]methyl]piperazin-1-yl]benzamide] |  | 
3 | −1.6 |  |  |  |  | CCOc1cccc(-c2ccc(C(=O)N3CCN(c4ccc(C(=O)N(C)CC56CC7CC(CC(C7)C5)C6)cc4)CC3)cc2F)c1 [B3A027-01, N-(1-Adamantylmethyl)-4-[4-[4-(3-ethoxyphenyl)-3-fluorobenzoyl]piperazin-1-yl]-N-methylbenzamide] | −0.7 | 
4 |  |  |  |  |  | CCOc1cccc(-c2cc(C(=O)N3CCN(c4ccc(C(=O)NCC56CC7CC(CC(C7)C5)C6)cc4)CC3)cc(C(C)(C)C)c2)c1 [B1A037-01, N-(1-Adamantylmethyl)-4-[4-[3-tert-butyl-5-(3-ethoxyphenyl)benzoyl]piperazin-1-yl]benzamide] |  | ASMS ratio (%) n = 1 [2]: 3.3%; ASMS ratio (%) n = 2 [2]: −5.0%
5 |  |  |  | 0.0 | 0.0 | CCOc1cncc(-c2csc(C(=O)N3CCN(c4ccc(C(=O)NS(=O)(=O)CCC(F)(F)F)nn4)CC3)c2)c1 [B2N002-01, 6-[4-[4-(5-Ethoxypyridin-3-yl)thiophene-2-carbonyl]piperazin-1-yl]-N-(3,3,3-trifluoropropylsulfonyl)pyridazine-3-carboxamide] |  | 
6 |  |  |  | 0.0 | 0.0 | CCOc1cccc(-c2ccc(CN3CCN(c4ccc(C(=O)NS(=O)(=O)CCC(F)(F)F)cc4)CC3)cc2C)c1 [B2N047-01, 4-[4-[[4-(3-Ethoxyphenyl)-3-methylphenyl]methyl]piperazin-1-yl]-N-(3,3,3-trifluoropropylsulfonyl)benzamide] |  | 
7 |  |  |  | 0.0 | 0.0 | CCOc1cncc(-c2cc(CN3CCN(c4ccc(C(=O)NS(C)(=O)=O)cc4)CC3)cc(OCC)c2)c1 [B2I056-01] |  | 
8 |  | 7.4 | 5.0 |  |  | CCOc1cccc(C#Cc2cc(C(=O)N3CCN(c4ccc(C(=O)NS(=O)(=O)CC56CC7CC(CC(C7)C5)C6)nn4)CC3)cc(C(F)(F)F)c2)c1 [B2A019-01, N-(1-Adamantylmethylsulfonyl)-6-[4-[3-[2-(3-ethoxyphenyl)ethynyl]-5-(trifluoromethyl)benzoyl]piperazin-1-yl]pyridazine-3-carboxamide] |  | 
9 |  | 12.0 | 14.0 |  |  | CCOc1cncc(-c2cc(CN3CCN(c4ccc(C(=O)NS(=O)(=O)CC56CC7CC(CC(C7)C5)C6)nn4)CC3)cc(C(F)(F)F)c2)c1 [B2A088-01, N-(1-Adamantylmethylsulfonyl)-6-[4-[[3-(5-ethoxypyridin-3-yl)-5-(trifluoromethyl)phenyl]methyl]piperazin-1-yl]pyridazine-3-carboxamide] |  | 
10 |  | 0.0 | 0.0 |  |  | CCOc1cccc(-c2csc(C(=O)N3CCN(c4ccc(C(=O)NS(=O)(=O)c5ccc(NCCSc6ccccc6)c([N+](=O)[O-])c5)cc4)CC3)c2)c1 [B2Q023-01, 4-[4-[4-(3-Ethoxyphenyl)thiophene-2-carbonyl]piperazin-1-yl]-N-[3-nitro-4-(2-phenylsulfanylethylamino)phenyl]sulfonylbenzamide] |  | 
11 |  |  |  | 12.7 | −1.8 | CCOc1cccc(-c2ccc(CN3CCN(c4ccc(C(=O)NS(=O)(=O)c5ccc(NCCSc6ccccc6)c(C(F)(F)F)c5)cc4)CC3)cc2F)c1 [B2R051-01, 4-[4-[[4-(3-Ethoxyphenyl)-3-fluorophenyl]methyl]piperazin-1-yl]-N-[4-(2-phenylsulfanylethylamino)-3-(trifluoromethyl)phenyl]sulfonylbenzamide] |  | 
12 |  | 21.8 | 13.2 |  |  | CCOc1cncc(-c2cc(CN3CCN(c4ccc(C(=O)NS(=O)(=O)c5ccc(NCCSc6ccccc6)c([N+](=O)[O-])c5)nn4)CC3)cc(OC(F)(F)F)c2)c1 [B2Q090-01, 6-[4-[[3-(5-Ethoxypyridin-3-yl)-5-(trifluoromethoxy)phenyl]methyl]piperazin-1-yl]-N-[3-nitro-4-(2-phenylsulfanylethylamino)phenyl]sulfonylpyridazine-3-carboxamide] |  | 
13 |  |  |  | 3.6 | −6.6 | CCOc1cccc(-c2ccccc2CCC(=O)N2CCN(c3ccc(C(=O)NS(=O)(=O)c4ccc(NCCSc5ccccc5)c(C(F)(F)F)c4)cc3)CC2)c1 [B2R033-01, 4-[4-[3-[2-(3-Ethoxyphenyl)phenyl]propanoyl]piperazin-1-yl]-N-[4-(2-phenylsulfanylethylamino)-3-(trifluoromethyl)phenyl]sulfonylbenzamide] |  | 
14 |  | 25.0 | 15.0 |  |  | CCOc1cccc(-c2cc(CN3CCN(c4ccc(C(=O)NS(=O)(=O)c5ccc(NCCSc6ccccc6)c([N+](=O)[O-])c5)nn4)CC3)cc(OC(F)(F)F)c2)c1 [B2Q089-01, 6-[4-[[3-(3-Ethoxyphenyl)-5-(trifluoromethoxy)phenyl]methyl]piperazin-1-yl]-N-[3-nitro-4-(2-phenylsulfanylethylamino)phenyl]sulfonylpyridazine-3-carboxamide] |  | 
15 |  |  |  | 0.0 | 0.0 | CCOc1cncc(-c2ccc(CN3CCN(c4ccc(C(=O)NS(C)(=O)=O)nn4)CC3)cc2F)c1 [B2I078-01] |  | 
16 | 390.0 |  |  |  |  | CCOc1cccc(-c2cc(CN3CCN(c4ccc(C(=O)N(C)CC56CC7CC(CC(C7)C5)C6)cc4)CC3)cc(OC(F)(F)F)c2)c1 [B3A063-01, N-(1-Adamantylmethyl)-4-[4-[[3-(3-ethoxyphenyl)-5-(trifluoromethoxy)phenyl]methyl]piperazin-1-yl]-N-methylbenzamide] |  | 
17 | 0.8 |  |  |  |  | CCOc1cccc(-c2ccc(CN3CCN(c4ccc(C(=O)Nc5ccc(OC)cc5)nn4)CC3)c(CC)c2)c1 [B1O075-01, 6-[4-[[4-(3-Ethoxyphenyl)-2-ethylphenyl]methyl]piperazin-1-yl]-N-(4-methoxyphenyl)pyridazine-3-carboxamide] | 9.3 | 

Row | Compound | ASMS ratio (%) n = 2 [1] [%] | ASMS ratio (%) n = 1 (AS-MS, mixture library, Bcl-2) [%] | ASMS ratio (%) n = 2 (AS-MS, mixture library, Bcl-2) [%] | ASMS ratio (%) (n = 1) | ASMS ratio (%) (n = 2) | ASMS ratio (%) n = 1 [1] [%] | other results
18 | 4-[4-[[4-(5-Ethoxypyridin-3-yl)-2-methoxyphenyl]methyl]piperazin-1-yl]-N-propylbenzamide [B1M099-01] | −0.3 |  |  |  |  | −0.7 | 
19 | CCOc1cncc(-c2csc(C(=O)N3CCN(c4ccc(C(=O)N(CC)CC)cc4)CC3)c2)c1 [B4J024-01, 4-[4-[4-(5-Ethoxypyridin-3-yl)thiophene-2-carbonyl]piperazin-1-yl]-N,N-diethylbenzamide] | 6.8 |  |  |  |  | −0.6 | 
20 | CCOc1cccc(-c2ccc(C(=O)N3CCN(c4ccc(C(=O)N(CC)CC)cc4)CC3)c3ccccc23)c1 [B4J035-01, 4-[4-[4-(3-Ethoxyphenyl)naphthalene-1-carbonyl]piperazin-1-yl]-N,N-diethylbenzamide] | 1.5 |  |  |  |  | 4.1 | 
